Test [1] has as its target T1, SARS-CoV-2 M^pro (main protease, 3CL^pro) (Severe acute respiratory syndrome coronavirus 2, UniProt P0DTD1).
T1 construct: gene rep
The test can be described thus: BRET-based sensor proteolytic cleavage assay. The format is biochemical. Conditions: read-out: Determined EC50. The text has this: BRET-based sensor proteolytic cleavage assay on SARS-CoV-2 M^pro (main protease, 3CL^pro)

For test [2], the target named is T1, SARS-CoV-2 M^pro (main protease, 3CL^pro). Put plainly: BRET-based sensor proteolytic cleavage assay. The format is biochemical. Conditions: 2 μM purified M^pro preincubated with compound 1 h at 37 °C; TBS, 1 M sodium citrate, 1 mM EDTA, 2 mM DTT; mNG-NLuc sensor substrate in HEK 293T lysate; read at 30 min. (In general: BRET reads energy transfer from a luciferase to a nearby fluorophore.)

For `CCCCc1nc(Cl)c(CO)n1Cc1ccc(-c2ccccc2-c2nn[nH]n2)cc1` [LT, Losartan], in test [1], the EC50 amounted to 260 ± 88.6 µM. `CCCc1nc2c(C)cc(-c3nc4ccccc4n3C)cc2n1Cc1ccc(-c2ccccc2C(=O)O)cc1` [TM, Telmisartan]: the EC50 not determined result in test [2] is “Telmisartan completely failed to inhibit M^pro”.

Values taken from PMC9775371, “Structure-Based Virtual Screening and Functional Validation of Potential Hit Molecules Targeting the SARS-CoV-2 Main Protease” (Biomolecules, 2022).
